Results as given in patent US10849867B2, “Methods and compositions for treating conditions associated with an abnormal inflammatory response” (First Wave Bio, Inc., priority 2015, dated 2020).

Experiments:
human LPMCs T cells = test: ΔΨm in T cells isolated from human intestine lamina propria (LPMC), TMRM with oligomycin (Example 2); format: cell-based
Description: Objective. […] Model. Lamina propria mononuclear cells (LPMC) in the human intestine are comprised in part by T cells, which mediate physiological and pathological processes including inflammatory bowel disease. LPMCs can be isolated from human tissue biopsies. After isolation […] cells remain viable ex vivo under appropriate culture conditions for periods of time that allow ex vivo experiments. These cells can be used to investigate mechanisms that regulate their mitochondrial function and survival. They contain respiring mitochondria and as such their response to mitochondrial uncouplers such as niclosamide may be assessed. This cellular model is used in conjunction with oligomycin that blocks oxidative phosphorylation and TMRM to monitor ΔΨm as described in Example 1. Cell isolation and culture. Cells are obtained from biopsy specimens of the small or large intestine or rectum of humans from areas of normal gastrointestinal tissue or with moderate to severe Crohn's disease (CD), ulcerative colitis (UC), or celiac disease. For the isolation of lamina propria mononuclear […] specimens are initially washed in Hank's balanced salt solution (HBSS) then are cut into 0.5-cm pieces, and are incubated with stirring in pre-warmed HBSS containing 1 mM DTT at 37° C. for 15 minutes. […] The isolated cells are counted and checked for viability using 0.1% trypan blue (viability ranges from 86% to 94%). […] In addition, anti-CD3 monoclonal antibody conjugated to FITC (excitation at 494 nm with emission detected at 521 nm) is additionally added during incubation with TMRM at 37° C. for 30 minutes. […] LPMC T cells are first defined by their fluorescence emission at 521 nm resulting from labeling with FITC-anti-CD3 antibody. The n fluorescence intensity of TMRM detected at 590 nm in the T cell population is measured. Median fluorescence intensity of the TMRM signal are computed. Ratios of the median fluorescence intensity of each treated sample to the control sample mean are then calculated as a measure of relative decrease in ΔΨm. […]

[1] = test system: TNBS model of ulcerative colitis; test: Murine TNBS model of ulcerative colitis, rectal versus intraperitoneal (FIG. 2); format: in vivo

**Q.** How did the “change in ΔΨm in human LPMCs T cells” value (human LPMCs T cells; TMRM, oligomycin, relative to negative controls) turn out when O=C(Nc1ccc([N+](=O)[O-])cc1Cl)c1cc(Cl)ccc1O [Niclosamide, 5-chloro-N-(2-chloro-4-nitrophenyl)-2-hydroxybenzamide] was run?
**A.** dose-related decrease

**Q.** What about the “concentrations of niclosamide that decrease ΔΨm (p<0.05)” value (human LPMCs T cells; human LPMCs T cells, relative to negative controls) of the same molecule?
**A.** ≥ 5 µM

**Q.** And the “mitochondrial uncoupling in lamina propria T cell” value (human LPMCs T cells; niclosamide 5 μM)?
**A.** more than 50%

**Q.** And the “efficacy in murine TNBS model of ulcerative colitis” value ([1]; administered rectally (locally))?
**A.** robust efficacy

**Q.** And the “efficacy in murine TNBS model of ulcerative colitis” value ([1]; intraperitoneal injection (systemically))?
**A.** not by intraperitoneal injection
